This passage reports AUC(0-t) results from ChEMBL document CHEMBL5528050, “Discovery of a Novel Series of Homo sapiens Caseinolytic Protease P Agonists for Colorectal Adenocarcinoma Treatment via ATF3-Dependent Integrated Stress Response” (J Med Chem, 2024).

For orientation: AUC(0-t) means the area under the concentration-time curve up to a stated or last time point. A lower AUC(0-t) goes with low exposure.

The series in a line: AUC (0 to 12hrs) in Sprague-Dawley rat at 10 mg/kg, po by LC-MS/MS analysis. Format: ADME, organism-based. The conditions noted are these: in vivo.

Take `N#Cc1cccc(CN2CCC=C(C(=O)NCc3ccc(C(F)(F)F)cc3)C2)c1`: the AUC(0-t) is 777 ng·h/mL.
